IC50 data for 8 compounds are collected here from patent US20080194632A1, “Novel Piperidine Derivatives as Chemokine Receptor Modulators Useful for the Treatment of Respiratory Diseases” (ASTRAZENECA AB, priority 2005, published 2008).

For the experiment, the target named is T1, human CCR1 (Homo sapiens, UniProt P32246).
T1 construct: expressed in transfected cells; membranes prepared
T1 sequence (P32246 1-355): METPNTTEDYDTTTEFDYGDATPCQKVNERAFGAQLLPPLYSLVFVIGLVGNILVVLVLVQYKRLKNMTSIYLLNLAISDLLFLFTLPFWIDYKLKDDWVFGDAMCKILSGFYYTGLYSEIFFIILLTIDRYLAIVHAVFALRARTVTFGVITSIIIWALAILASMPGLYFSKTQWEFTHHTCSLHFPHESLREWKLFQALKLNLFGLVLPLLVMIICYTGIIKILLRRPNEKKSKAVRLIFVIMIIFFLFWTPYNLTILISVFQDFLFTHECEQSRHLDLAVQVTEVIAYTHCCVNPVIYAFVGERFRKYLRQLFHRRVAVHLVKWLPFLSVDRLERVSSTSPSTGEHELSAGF
In words: Human CCR1 binding assay ([125I] MIP-1α displacement). Particulars: displacement of 33 pM [125I] MIP-1α from HEK-CCR1 membranes, pH 7.4, 1.5 hrs at room temperature. The method, then:
HEK293 cells, from ECACC, stably expressing recombinant human CCR1 (HEK-CCR1) were used to prepare cell membranes containing CCR1. The membranes were stored at −70° C. The concentration of membranes of each batch was adjusted to 10% specific binding of 33 pM [^125I] MIP-1α.
100 μL of HEK-CCR1 membranes diluted in assay buffer pH 7.4 (137 mM NaCl (Merck, Cat No 1.06404), 5.7 mM Glucose (Sigma, Cat No G5400), 2.7 mM KCl (Sigma, Cat No P-9333), 0.36 mM NaH2PO4×H2O (Merck, Cat No 1.06346), 10 mM HEPES (Sigma, Cat No H3375), 0.1% (w/v) Gelatine (Sigma, Cat No G2625)) with the addition of 17500 units/L Bacitracin (Sigma, Cat No B 1025) were added to each well of the 96 well filter plate (0.45 μm opaque Millipore cat no MHVB N4550). 12 μL of compound in assay buffer, containing 10% DMSO, was added to give final compound concentrations of 1×10^−5.5-1×10^−9.5 M. 12 μl cold human recombinant MIP-1α (270-LD-050, R&D Systems, Oxford, UK), 10 nM final concentration in assay buffer supplemented with 10% DMSO, was included in certain wells (without compound) as non-specific binding control (NSB). 12 μl assay buffer with 10% DMSO was added to certain wells (without compound) to detect maximal binding (B0).
12 μL [^125I] MIP-1α, diluted in assay buffer to a final concentration in the wells of 33 pM, was added to all wells. The plates with lid were then incubated for 1.5 hrs at room temperature. After incubation the wells were emptied by vacuum filtration (MultiScreen Resist Vacuum Manifold system, Millipore) and washed once with 200 μl assay buffer. After the wash, all wells received an addition of 50 μL of scintillation fluid (OptiPhase “Supermix”, Wallac Oy, Turko, Finland). Bound [^125I] MIP-1α was measured using a Wallac Trilux 1450 MicroBeta counter. Window settings: Low 5-High 1020, 1-minute counting/well.
The following equation was used to calculate percent displacement.
Percent displacement=1−((cpm test−cpm NSB)/(cpm B0−cpm NSB)) where:
cpm test=average cpm in duplicate wells with membranes and compound and [^125I] MIP-1α cpm; NSB=average cpm in the wells with membranes and MIP-1α and [^125I] MIP-1α (non-specific binding) cpm; B0=average cpm in wells with membranes and assay buffer and [^125I] MIP-1α (maximum binding).
The molar concentration of compound producing 50% displacement (IC50) was derived using the Excel-based program XLfit (version 2.0.9) to fit data to a 4-parameter logistics function.

Broadly, the IC50 is the concentration that inhibits the measured activity by half. A lower IC50 goes with higher potency. In turn, `CCC(=O)Nc1ccc(O)cc1OC[C@@](C)(O)CNC1CCN(Cc2ccc(Cl)cc2)CC1` [Comparison 1] displayed a 50% inhibitory concentration (IC50) of 7 nM. This counts as single-digit nanomolar.
Compound `CCC(=O)Nc1cc(Cl)c(O)cc1OC[C@@](C)(O)CNC1CCN(Cc2ccc(Cl)cc2)CC1` [Example 1, N-{5-Chloro-2-[((2S)-3-{[1-(4-chlorobenzyl)piperidin-4-yl]amino}-2-hydroxy-2-methylpropyl)oxy]-4-hydroxyphenyl}propaneamide di-trifluoroacetate] displayed a 50% inhibitory concentration (IC50) of 0.4 nM.
In the case of `CC(=O)Nc1ccc(O)cc1OC[C@@](C)(O)CNC1CCN(Cc2ccc(Cl)cc2)CC1` [Comparison 2] it was 3.9 nM.
In the case of `CCC(=O)Nc1cc(Cl)c(O)cc1OC[C@@H](O)CNC1CCN(Cc2ccc(Cl)cc2)CC1` [Example 9, N-{5-Chloro-2-[((2S)-3-{[1-(4-chlorobenzyl)piperidin-4-yl]amino}-2-hydroxylpropyl)oxy]-4-hydroxyphenyl}propaneamide di-trifluoroacetate] it was 2.7 nM; in that of `CC(=O)Nc1ccc(O)cc1OC[C@@H](O)CNC1CCN(Cc2ccc(Cl)cc2)CC1` [Comparison 8], 4.5 nM.
The compound `CC(=O)Nc1cc(Cl)c(O)cc1OC[C@@H](O)CNC1CCN(Cc2ccc(Cl)cc2)CC1` [Example 8, N-{5-Chloro-2-[((2S)-3-{[1-(4-chlorobenzyl)piperidin-4-yl]amino}-2-hydroxypropyl)oxy]-4-hydroxyphenyl}acetamide di-trifluoroacetate] returned a 50% inhibitory concentration (IC50) of 1.6 nM.
Under `CC(=O)Nc1cc(Cl)c(O)cc1OC[C@@](C)(O)CNC1CCN(Cc2ccc(Cl)cc2)CC1` [Example 2, N-{5-Chloro-2-[((2S)-3-{[1-(4-chlorobenzyl)piperidin-4-yl]amino}-2-hydroxy-2-methylpropyl)oxy]-4-hydroxyphenyl}acetamide di-trifluoroacetate] stands 0.7 nM; under `CCC(=O)Nc1ccc(O)cc1OC[C@@H](O)CNC1CCN(Cc2ccc(Cl)cc2)CC1` [Comparison 9], 13.6 nM.
